Experimental data: PMC12723449, “From Pharmacophore to Warhead: NAD^+‐Targeting Triazoles as Mechanism‐Based Sirtuin Inhibitors” (Angewandte Chemie (International Ed. in English), 2025)

T1: SIRT2 (Homo sapiens, UniProt Q8IXJ6)
T1 construct: For assay experiments, strep-tagged human SIRT1134−747 and SIRT256-356 were expressed and purified as previously; Strep-tag; made in house; host or cells: E. coli BL21 Star (DE3)
T1 sequence (Q8IXJ6 56-356 limits assumed): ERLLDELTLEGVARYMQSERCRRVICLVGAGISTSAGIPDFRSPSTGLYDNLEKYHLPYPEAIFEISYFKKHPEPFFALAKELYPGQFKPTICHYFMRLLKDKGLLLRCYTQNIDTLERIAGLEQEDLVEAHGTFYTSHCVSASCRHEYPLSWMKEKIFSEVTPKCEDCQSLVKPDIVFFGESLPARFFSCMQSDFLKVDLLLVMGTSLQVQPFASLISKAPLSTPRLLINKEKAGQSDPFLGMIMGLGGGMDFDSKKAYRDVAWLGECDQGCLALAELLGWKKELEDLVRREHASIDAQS

T2: SIRT3 (Homo sapiens, UniProt Q9NTG7)
T2 construct: Human SIRT3118-395 was expressed and purified as previously described.[5]; made in house
T2 sequence (Q9NTG7 118-395 limits assumed): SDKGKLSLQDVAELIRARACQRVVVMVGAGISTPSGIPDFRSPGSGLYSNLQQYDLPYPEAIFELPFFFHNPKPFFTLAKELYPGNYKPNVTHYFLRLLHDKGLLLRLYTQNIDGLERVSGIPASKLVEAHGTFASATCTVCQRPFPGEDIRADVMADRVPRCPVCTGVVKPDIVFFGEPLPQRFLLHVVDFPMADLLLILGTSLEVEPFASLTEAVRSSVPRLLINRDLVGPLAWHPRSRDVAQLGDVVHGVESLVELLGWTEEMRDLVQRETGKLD

T3: SIRT1 (Homo sapiens, UniProt Q96EB6)
T3 construct: For assay experiments, strep-tagged human SIRT1134−747 and SIRT256-356 were expressed and purified as previously; Strep-tag; made in house; host or cells: E. coli BL21 Star (DE3)
T3 sequence (Q96EB6 134-747 limits assumed): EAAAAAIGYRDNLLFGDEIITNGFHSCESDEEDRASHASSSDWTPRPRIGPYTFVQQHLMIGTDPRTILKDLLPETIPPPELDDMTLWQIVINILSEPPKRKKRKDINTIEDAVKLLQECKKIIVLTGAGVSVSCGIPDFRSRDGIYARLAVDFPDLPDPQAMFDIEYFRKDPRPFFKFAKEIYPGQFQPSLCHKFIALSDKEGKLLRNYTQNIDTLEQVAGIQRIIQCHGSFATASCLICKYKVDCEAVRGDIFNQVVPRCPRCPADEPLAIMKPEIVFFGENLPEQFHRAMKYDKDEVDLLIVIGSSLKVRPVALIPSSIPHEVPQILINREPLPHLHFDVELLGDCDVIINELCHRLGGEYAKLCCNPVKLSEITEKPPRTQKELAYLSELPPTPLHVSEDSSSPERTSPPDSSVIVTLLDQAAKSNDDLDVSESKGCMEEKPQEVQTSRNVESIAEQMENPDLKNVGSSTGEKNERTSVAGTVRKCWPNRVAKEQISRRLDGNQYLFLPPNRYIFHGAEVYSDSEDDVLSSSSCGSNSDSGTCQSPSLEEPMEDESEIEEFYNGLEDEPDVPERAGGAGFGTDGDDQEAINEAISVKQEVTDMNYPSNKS

T4: NanoLuc–SIRT2 fusion protein in HEK293T cells (Homo sapiens, UniProt Q8IXJ6)
T4 construct: transfected HEK293T cells expressing the NanoLuc-tagged SIRT250-356 fusion protein were used instead of transient; expressed in transfected cells; host or cells: HEK293T (stably transfected)
T4 sequence (Q8IXJ6 50-356 limits assumed): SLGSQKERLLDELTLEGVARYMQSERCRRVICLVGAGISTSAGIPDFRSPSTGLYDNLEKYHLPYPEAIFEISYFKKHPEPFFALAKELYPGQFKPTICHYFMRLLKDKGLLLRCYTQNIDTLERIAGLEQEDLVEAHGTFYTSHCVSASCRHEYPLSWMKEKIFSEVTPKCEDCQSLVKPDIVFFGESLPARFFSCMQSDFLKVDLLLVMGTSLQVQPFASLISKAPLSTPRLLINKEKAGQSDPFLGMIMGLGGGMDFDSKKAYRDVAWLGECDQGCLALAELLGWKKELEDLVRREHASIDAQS

T5: NanoLuc–SIRT2 fusion protein in HEK293T cells (Homo sapiens, UniProt Q8IXJ6)
T5 construct: HEK293T cells stably expressing the NanoLuc-SIRT250-364-fusion target protein were seeded into the coated plates; expressed in transfected cells; host or cells: HEK293T (stably expressing)
T5 sequence (Q8IXJ6 50-364 limits assumed): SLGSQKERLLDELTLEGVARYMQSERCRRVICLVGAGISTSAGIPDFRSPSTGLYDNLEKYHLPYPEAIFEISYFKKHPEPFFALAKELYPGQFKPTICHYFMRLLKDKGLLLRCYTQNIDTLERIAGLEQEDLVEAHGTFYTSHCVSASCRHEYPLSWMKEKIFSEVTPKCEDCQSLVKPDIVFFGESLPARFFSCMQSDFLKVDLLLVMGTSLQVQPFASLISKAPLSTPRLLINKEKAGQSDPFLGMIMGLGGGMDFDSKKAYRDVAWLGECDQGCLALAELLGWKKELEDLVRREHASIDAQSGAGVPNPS


How the values were obtained:
SIRT2 [1] = biological target: T1, SIRT2; assay: Fluorescence-based deacetylation assay (ZMAL-assay), SIRT2; assay type: biochemical; conditions: 37 °C, assay limit 0.10 µM, read-out: SIRT2 (deac.) IC50
Method: (§1) Determination of IC50 values (SIRT1, SIRT2, SIRT3) via fluorescence-based deacetylation assay […]
(§2) The fluorescence-based deacetylation assay was conducted in a black 384-well microplate (OptiPlate-384 F, PerkinElmer) with a total volume of 30 µL per well and a final DMSO concentration of 2% (v/v) according to a […]
(§3) concentration of 100 nM) in assay buffer (50 mM Tris, 137 mM NaCl, 2.7 mM KCl, 1m MgCl2, 0.01% Tween, 0.05 mg/mL BSA, 0.2 mM TCEP, pH 8.0), 5 µL of substrate (ZMAL, final concentration of 10.5 µM), 5 µL of NAD+ (final concentration of 500 µM) and 10 µL of inhibitor solution (final concentration of 30 µM – 0.014 µM, serial 1:3 dilutions) was incubated at 37 °C and 300 rpm for 4 h. A solution of trypsin (final concentration of 0.5 mg/mL) and nicotinamide (final concentration of 4 mM) was added and incubated at 37 °C and 300 rpm for 30 min to stop the reaction. Samples with 2% (v/v) DMSO instead of inhibitor were prepared as a positive control, and samples with 2% (v/v) DMSO instead of SIRT enzyme were prepared as a negative control. Fluorescence intensity was measured with a microplate reader (λEx = 380-10 nm, λEm = 460 nm, BMG POLARstar Optima, BMG Labtech, Germany). IC50 values were then determined using a nonlinear regression fit with Origin Pro 2019 software. All experiments were performed at least in duplicates. […]

SIRT2 [2] = biological target: T1, SIRT2; assay: Fluorescence-based demyristoylation assay (BSA-Assay); assay type: biochemical
Method: Determination of IC50 values (SIRT2) via fluorescence-based demyristoylation assay (BSA-Assay) The fluorescence-based demyristoylation assay was conducted in a continuous manner in a black 384-well microplate (OptiPlate-384 F, PerkinElmer) with a total volume of 40 µL per well and a final DMSO concentration of 5% (v/v), following a published procedure.[9] A mixture of 14 µL SIRT2 (final concentration of 1 nM) in assay buffer (20 mM Tris, 150 mM NaCl, […], pH 7.8) freshly supplemented with 2 mg/mL of BSA, 14 µL of substrate (F4, KM = 33 ± 5 nM[9], final concentration of 40 nM) and 2 µL of inhibitor solution (final concentration of 100 µM – 0.002 µM, serial 1:2 or 1:4 dilutions) was incubated at 25 °C and 350 rpm for 5 min. Samples with 5% (v/v) DMSO instead of inhibitor were measured as a positive control, and samples with assay buffer and 5% (v/v) DMSO instead of SIRT2 were measured as a negative control. The reaction was started with the addition of 10 µL NAD+ (final concentration of 500 µM) and the product formation was immediately monitored by the change of the fluorescence intensity at 25 °C for 20 min. For NAD+ preincubation experiments, instead of the substrate, 10 µL of NAD+ (final concentration of 500 µM) was added to the solution and incubated at 25 °C and 350 rpm for 15 min. The reaction was started with the addition of 14 µL substrate (final concentration of 40 nM) and the product formation was immediately monitored by the change of the fluorescence intensity at 25 °C every 60 s for 20 min using a microplate reader (λEx = 485 nm, λEm = 530-10 nm, BMG POLARstar Optima, BMG Labtech, Germany).
The activity was normalized using the positive control as 100% and the negative control as 0%. The normalized activity (v/v0) was plotted as a function of the logarithm of the inhibitor concentration [I], and a nonlinear fit was performed according to the following equation to determine the IC50 value.[9] […]

SIRT3 = biological target: T2, SIRT3; assay: Fluorescence-based deacetylation assay (ZMAL-assay), SIRT3; assay type: biochemical; conditions: 37 °C, assay limit 0.10 µM; for IC50: read-out: SIRT3 (deac.) IC50
Method: as §1, §2, §3

SIRT2 [3] = biological target: T1, SIRT2; assay: Differential scanning fluorimetry (DSF) / fluorescence thermal shift assay; assay type: binding; conditions: 10 µM compound, with NAD+ addition
Method: Differential scanning fluorimetry (DSF) assay
Differential scanning fluorimetry assays were performed in white 96-well plates (Hard-Shell PCR Plates, BioRad, USA) with a total volume of 20 µL per well and a final DMSO concentration of 5% (v/v), following a published
A solution of 10 µL SIRT2 (final concentration of 6.0 µM) and SYPRO Orange (5x, Sigma-Aldrich, Germany) in assay buffer (25 mM Tris-HCl, 150 mM NaCl, 1 mM DTT, pH 8.0) was mixed with 10 µL of compound and incubated at 25 °C and 350 rpm for 5 min. Where applicable, NAD+ was added to a final concentration of 2.5 mM. Fluorescence
(C1000 Touch™ Thermal Cycler, CFX96™ Real-Time System, BioRad, USA). Melting temperatures were determined using GraphPad Prism, following a published procedure.[6]

SIRT1 = biological target: T3, SIRT1; assay: Fluorescence-based deacetylation assay (ZMAL-assay), SIRT1; assay type: biochemical; conditions: 37 °C, assay limit 0.10 µM; for IC50: read-out: SIRT1 (deac.) IC50
Method: as §1, §2, §3

[4] = biological target: T4, NanoLuc–SIRT2 fusion protein in HEK293T cells; assay: NanoBRET cellular target engagement assay; assay type: cell-based; conditions: without digitonin
Method: The NanoBRET target engagement assay was performed as previously described[2] with the modification that stably transfected HEK293T cells expressing the NanoLuc-tagged SIRT250-356 fusion protein were used instead of transient transfection. Briefly, HEK293T-NLuc- SIRT250-356 cells were cultured under standard conditions (37 °C, 5% CO2) in DMEM supplemented with 10% fetal bovine serum, 2 mM glutamine, and 300 µg/mL hygromycin as a selection marker. For the assay, cells were trypsinized, resuspended in Opti-MEM® reduced serum medium, and adjusted to a concentration of 2 × 10^5 cells per mL. […]
µM was used. Serially diluted inhibitor and tracer were added to the cell suspension, and 100 μL were seeded into 96-well white, sterile, nonbinding surface plates. To evaluate the cellular permeability of LTDi-1 (6), the non-ionic detergent digitonin (50 µg/ml) was added. Plates were incubated at 37 °C with 5% CO2 for 2 h. For BRET measurements, NanoBRET NanoGlo Substrate (Promega cat. #N1571) was added to the wells according to the […]
All measurements were performed using the 2102 EnVisionTM Multilabel Reader (PerkinElmer), equipped with a 460 nm filter (donor) and a 615 nm filter (acceptor). The BRET ratio was calculated as the ratio of acceptor to donor signal, and data were normalized to vehicle-treated controls. Apparent intracellular binding affinities (EC50 values) were determined by fitting dose-response curves using nonlinear regression analysis in GraphPad Prism. […]

[5] = biological target: T5, NanoLuc–SIRT2 fusion protein in HEK293T cells; assay: Kinetic NanoBRET washout assay (target residence time); assay type: cell-based; conditions: 8 µM (10 × EC50), 2 h preincubation, 2 h washout
Method: NanoBRET washout assay for determination of target residence time
A NanoBRET-based washout assay was used to assess the target residence time of inhibitors for SIRT2 in living cells. White, flat-bottom 96-well plates (PerkinElmer) were pre-coated with poly-L-lysine (Sigma-Aldrich) to enhance cell adherence. Briefly, each well was treated with poly-L-lysine solution for 5 min at room temperature, followed by removal of the coating solution and air-drying before seeding.
Cells were treated with the indicated inhibitor
After incubation, the inhibitor-containing medium was aspirated, and a washout procedure was performed to remove unbound inhibitor. Each well was washed twice by sequential addition and removal of 100 µL Opti-MEM (Thermo Fisher Scientific). Following the final wash, 90 µL Opti-MEM was added per well, followed by 100 µL of 2× Nano-Glo® substrate solution (Promega) and 10 µL of 20× SIRT2-Tracer solution.
BRET measurements were recorded kinetically using a Tecan Spark® plate reader equipped with donor (460 nm)
The BRET ratio was monitored over time to track the re-binding of the

[6] = biological target: BT-6 (biotinylated analogue of compound 6); assay: BLI; SIRT2 (25–400 nM) incubated 1 h with BT-6 (500 nM) and NAD+ (500 µM), then immobilised on streptavidin-coated biosensors; dissociation followed
[7] = biological target: BT-6 (biotinylated analogue of compound 6); assay: BLI; SIRT2 (25–400 nM) incubated 1 h with BT-6 (500 nM) without NAD+, then immobilised on streptavidin-coated biosensors; dissociation followed
[8] = 15 min NAD+ preincubation, read-out: IC50, SIRT2 demyristoylation after NAD+ preincubation
[9] = BSA-Assay, 25 °C, read-out: SIRT2 (demyr.) IC50

Molecule | IC50 (SIRT2 [1]) [nM] | IC50 (SIRT2 [2]; [8]) [nM] | IC50 (SIRT2 [2]; [9]) [nM] | IC50 (SIRT3) [nM] | IC50 (SIRT1) [nM] | other results
CCCCCCCCCCCCc1cn(CCC[C@H](NC(=O)[C@H](CCCCN)NC(=O)[C@@H]2CCCN2C(=O)[C@H](CC(C)C)NC(=O)[C@H](C)NC(=O)[C@H](CCC(=O)O)NC(C)=O)C(=O)N[C@H](C(=O)NCC(=O)NCC(N)=O)[C@@H](C)O)nn1 [Compound 5] | < 100 | 760 ± 250 | 1940 ± 510 | 3300 ± 200 | 14200 ± 1500 | ΔTm at 10 µM (SIRT2 [3]): 9.9 °C
CCCCCCCCCCCCc1cn(CCCC[C@H](NC(=O)[C@H](CCCCN)NC(C)=O)C(N)=O)nn1 [Compound 6a] | < 100 | 36 ± 2 | 460 ± 40 | 8200 ± 400 | 230 ± 20 | –
Cc1cc(C)nc(SCC(=O)Nc2ncc(Cc3cccc(OCc4cn(Cc5ccc(OCCN6CCOCC6)cc5)nn4)c3)s2)n1 [Compound 2, reference compound] | 120 ± 10 | – | 50 ± 10 | – | – | SIRT3 (deac.) IC50 (SIRT3): n.i.; SIRT1 (deac.) IC50 (SIRT1): n.i.
CCCCCCCCCCCCc1cn(CCCC[C@H](NC(=O)[C@H](CCCCN)NC(=O)[C@@H]2CCCN2C(C)=O)C(=O)N[C@H](C(N)=O)[C@@H](C)O)nn1 [Compound 6b] | – | – | – | – | – | extent of cellular target engagement [4]: complete target engagement; inhibition after washout [5]: retained full inhibition throughout
Sirtuin 2 (SIRT2) (enzyme) MAEPDPSHPLETQAGKVQEAQDSDSDSEGGAAGGEADMDFLRNLFSQTLSLGSQKERLLDELTLEGVARYMQSERCRRVICLVGAGISTSAGIPDFRSPSTGLYDNLEKYHLPYPEAIFEISYFKKHPEPFFALAKELYPGQFKPTICHYFMRLLKDKGLLLRCYTQNIDTLERIAGLEQEDLVEAHGTFYTSHCVSASCRHEYPLSWMKEKIFSEVTPKCEDCQSLVKPDIVFFGESLPARFFSCMQSDFLKVDLLLVMGTSLQVQPFASLISKAPLSTPRLLINKEKAGQSDPFLGMIMGLGGGMDFDSKKAYRDVAWLGECDQGCLALAELLGWKKELEDLVRREHASIDAQSGAGVPNPSTSASPKKSPPPAKDEARTTEREKPQ | – | – | – | – | – | koff [6]: 0.00026 s⁻¹; koff [7]: 0.0071 s⁻¹
